From US7576222B2, “Alkynyl-containing tryptophan derivative inhibitors of TACE/matrix metalloproteinase” (priority 2004, dated 2009)

The compounds below were run against T1, catalytic domain of the recombinant TACE protein (Homo sapiens, UniProt P78536) (assay: TACE FRET assay using TACE cat). Details: not given.
T1 construct: The catalytic domain of the recombinant TACE protein was expressed and purified; made in house
Type: biochemical
Description: TACE FRET Assay Using TACE Cat
“K” is the IC50. Generally, “n” and “B” are floated, noting that n (Hill slope) should be close to 1 and B (background offset) to 0.
Pro-TNF-α substrate peptide Abz-[…]-Dpa (AnaSpec, San Jose, Calif., WARC-1) was prepared as a 2 mM stock solution in the TACE assay buffer (50 mM Tris-HCl, pH 7.4, 25 mM NaCl, 4% Glycerol, 0.005% Brij 35). The catalytic domain of the recombinant TACE protein was expressed and purified. The TACE protein (1 ug/ml) was pretreated with the inhibitors at various concentrations for 10 min. at room temperature. The reaction was initiated by the addition of the substrate peptide. […] The initial rate (slope) of the reaction was determined using a fluorescence plate reader (Molecular Devices, Spectra Max Gemini XS).

T1 sequence (P78536 223-474 limits assumed): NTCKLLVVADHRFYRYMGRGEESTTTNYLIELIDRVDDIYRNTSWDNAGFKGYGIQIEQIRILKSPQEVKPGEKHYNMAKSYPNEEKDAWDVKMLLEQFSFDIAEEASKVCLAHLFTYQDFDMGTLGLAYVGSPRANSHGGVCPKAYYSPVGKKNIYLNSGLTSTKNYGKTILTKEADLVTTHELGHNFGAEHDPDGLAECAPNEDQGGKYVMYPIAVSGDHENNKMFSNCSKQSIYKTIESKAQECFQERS

Row | Compound | IC50 [nM]
1 | CC#CCOc1ccc(S(=O)(=O)N[C@@H](Cc2c(C)n(Cc3ccc(Cl)cc3)c3ccc(OC)cc23)C(=O)O)cc1 [Example 201, N-{[4-(but-2-ynyloxy)phenyl]sulfonyl}-1-(4-chlorobenzyl)-5-methoxy-2-methyltryptophan] | 290
2 | CC#CCOc1ccc(S(=O)(=O)N[C@H](Cc2cn(CC3CCCCC3)c3ccccc23)C(=O)O)cc1 [Example 23, N-{[4-(but-2-ynyloxy)phenyl]sulfonyl}-1-(cyclohexylmethyl)-D-tryptophan] | 1710
3 | CC#CCOc1ccc(S(=O)(=O)N[C@@H](Cc2c[nH]c3ccc(O)cc23)C(=O)O)cc1 [Example 5, N-{[4-(but-2-ynyloxy)phenyl]sulfonyl}-5-hydroxytryptophan] | 1610

Same assay, conditions: TACE FRET assay, catalytic domain of recombinant TACE; read-out: TACE IC50

Row | Compound | IC50 [nM]
4 | CC#CCOc1ccc(S(=O)(=O)N[C@H](Cc2c[nH]c3ccccc23)C(=O)O)cc1 [Example 1, N-{[4-(but-2-ynyloxy)phenyl]sulfonyl}-D-tryptophan] | 2530
5 | N-{[4-(but-2-ynyloxy)phenyl]sulfonyl}-methoxy-L(or D)-tryptophan [Example 222] | 10100
6 | CC#CCOc1ccc(S(=O)(=O)N[C@H](Cc2cn(Cc3ccc(C)cc3)c3ccccc23)C(=O)O)cc1 [Example 26, N-{[4-(but-2-ynyloxy)phenyl]sulfonyl}-1-(4-methylbenzyl)-D-tryptophan] | 3590

Same assay, conditions: read-out: TACE Inhibition (%)

Row | Compound | inhibition at 1 µM [%]
7 | CC#CCOc1ccc(S(=O)(=O)N[C@@H](Cc2c(C)n(Cc3ccc(C(C)C)cc3)c3ccccc23)C(=O)O)cc1 [Example 157, N-{[4-(but-2-ynyloxy)phenyl]sulfonyl}-1-(4-isopropylbenzyl)-2-methyltryptophan] | 34.2
8 | CC#CCOc1ccc(S(=O)(=O)N[C@@H](Cc2cn(CCCCC)c3ccc(C(=O)O)cc23)C(=O)O)cc1 [Example 130, N-{[4-(but-2-ynyloxy)phenyl]sulfonyl}-5-carboxy-1-pentyltryptophan] | -5.71
9 | CC#CCOc1ccc(S(=O)(=O)N[C@@H](Cc2cn(Cc3cccc(C)c3)c3ccc(OC)cc23)C(=O)O)cc1 [Example 50, N-{[4-(but-2-ynyloxy)phenyl]sulfonyl}-5-methoxy-1-(3-methylbenzyl)tryptophan] | 30.6
10 | CC#CCOc1ccc(S(=O)(=O)N[C@@H](Cc2cn(Cc3ccccc3)c3ccc(C#N)cc23)C(=O)O)cc1 [Example 135, 1-benzyl-N-{[4-(but-2-ynyloxy)phenyl]sulfonyl}-5-cyanotryptophan] | 29.6
11 | CC#CCOc1ccc(S(=O)(=O)N[C@@H](Cc2cn(Cc3cc(OC)cc(OC)c3)c3ccc(OC)cc23)C(=O)O)cc1 [Example 54, N-{[4-(but-2-ynyloxy)phenyl]sulfonyl}-1-(3,5-dimethoxybenzyl)-5-methoxytryptophan] | 38
12 | CC#CCOc1ccc(S(=O)(=O)N[C@@H](Cc2c(C)n(Cc3cc(F)cc(F)c3)c3ccccc23)C(=O)O)cc1 [Example 155, N-{[4-(but-2-ynyloxy)phenyl]sulfonyl}-1-(3,5-difluorobenzyl)-2-methyltryptophan] | 54.3
13 | CC#CCOc1ccc(S(=O)(=O)N[C@@H](Cc2cn(CC)c3ccc(C(=O)O)cc23)C(=O)O)cc1 [Example 128, N-{[4-(but-2-ynyloxy)phenyl]sulfonyl}-5-carboxy-1-ethyltryptophan] | -0.6
14 | CC#CCOc1ccc(S(=O)(=O)N[C@@H](Cc2c(C)n(Cc3cccc(OC)c3)c3ccc(Cl)cc23)C(=O)O)cc1 [Example 90, N-{[4-(but-2-ynyloxy)phenyl]sulfonyl}-5-chloro-1-(3-methoxybenzyl)-2-methyltryptophan] | 65.2
15 | CC#CCOc1ccc(S(=O)(=O)N[C@@H](Cc2cn(Cc3ccc(C)cc3)c3ccc(C(=O)O)cc23)C(=O)O)cc1 [Example 106, N-{[4-(but-2-ynyloxy)phenyl]sulfonyl}-5-carboxy-1-(4-methylbenzyl)tryptophan] | 5.53
16 | CC#CCOc1ccc(S(=O)(=O)N[C@@H](Cc2cn(Cc3ccccc3)c3ccc(Cl)cc23)C(=O)O)cc1 [Example 71, 1-benzyl-N-{[4-(but-2-ynyloxy)phenyl]sulfonyl}-5-chlorotryptophan] | -1.19
17 | CC#CCOc1ccc(S(=O)(=O)N[C@@H](Cc2c(C)n(Cc3ccc4c(c3)OCO4)c3ccc(Cl)cc23)C(=O)O)cc1 [Example 100, 1-(1,3-benzodioxol-5-ylmethyl)-N-{[4-(but-2-ynyloxy)phenyl]sulfonyl}-5-chloro-2-methyltryptophan] | 55.6
18 | CC#CCOc1ccc(S(=O)(=O)N[C@@H](Cc2c(C)n(Cc3cccc(F)c3)c3ccccc23)C(=O)O)cc1 [Example 153, N-{[4-(but-2-ynyloxy)phenyl]sulfonyl}-1-(3-fluorobenzyl)-2-methyltryptophan] | 55.9
19 | CC#CCOc1ccc(S(=O)(=O)N[C@@H](Cc2cn(Cc3cccc(OC)c3)c3ccc(Cl)cc23)C(=O)O)cc1 [Example 75, N-{[4-(but-2-ynyloxy)phenyl]sulfonyl}-5-chloro-1-(3-methoxybenzyl)tryptophan] | 25
20 | CC#CCOc1ccc(S(=O)(=O)N[C@@H](Cc2c(C)n(Cc3cccc(C)c3)c3ccc(OC)cc23)C(=O)O)cc1 [Example 187, N-{[4-(but-2-ynyloxy)phenyl]sulfonyl}-5-methoxy-2-methyl-1-(3-methylbenzyl)tryptophan] | 78.8
21 | CC#CCOc1ccc(S(=O)(=O)N[C@@H](Cc2cn(Cc3ccc(OC)cc3)c3ccc(Cl)cc23)C(=O)O)cc1 [Example 76, N-{[4-(but-2-ynyloxy)phenyl]sulfonyl}-5-chloro-1-(4-methoxybenzyl)tryptophan] | 18.3
22 | CC#CCOc1ccc(S(=O)(=O)N[C@@H](Cc2cn(Cc3cc(F)cc(F)c3)c3ccc(C(=O)O)cc23)C(=O)O)cc1 [Example 118, N-{[4-(but-2-ynyloxy)phenyl]sulfonyl}-5-carboxy-1-(3,5-difluorobenzyl)tryptophan] | 5.98
23 | CC#CCOc1ccc(S(=O)(=O)N[C@@H](Cc2cn(Cc3cccc(C(F)(F)F)c3)c3ccc(C(=O)O)cc23)C(=O)O)cc1 [Example 112, N-{[4-(but-2-ynyloxy)phenyl]sulfonyl}-5-carboxy-1-[3-(trifluoromethyl)benzyl]tryptophan] | 5.51
24 | CC#CCOc1ccc(S(=O)(=O)N[C@@H](Cc2c(C)n(Cc3cccc(OC(F)(F)F)c3)c3ccc(OC)cc23)C(=O)O)cc1 [Example 194, N-{[4-(but-2-ynyloxy)phenyl]sulfonyl}-5-methoxy-2-methyl-1-[3-(trifluoromethoxy)benzyl]tryptophan] | 80.8
25 | CC#CCOc1ccc(S(=O)(=O)N[C@@H](Cc2c(C)n(Cc3ccc(OC)cc3)c3ccc(OC)cc23)C(=O)O)cc1 [Example 191, N-{[4-(but-2-ynyloxy)phenyl]sulfonyl}-5-methoxy-1-(4-methoxybenzyl)-2-methyltryptophan] | 77.5
26 | CC#CCOc1ccc(S(=O)(=O)N[C@@H](Cc2c(C)n(Cc3ccccc3)c3ccccc23)C(=O)O)cc1 [Example 144, 1-benzyl-N-{[4-(but-2-ynyloxy)phenyl]sulfonyl}-2-methyltryptophan] | 18.8
27 | CC#CCOc1ccc(S(=O)(=O)N[C@@H](Cc2c(C)n(CC3CCCCC3)c3ccc(OC)cc23)C(=O)O)cc1 [Example 213, N-{[4-(but-2-ynyloxy)phenyl]sulfonyl}-1-(cyclohexylmethyl)-5-methoxy-2-methyltryptophan] | 60.5
28 | CC#CCOc1ccc(S(=O)(=O)N[C@@H](Cc2cn(Cc3cccc(OC)c3)c3ccc(C#N)cc23)C(=O)O)cc1 [Example 138, N-{[4-(but-2-ynyloxy)phenyl]sulfonyl}-5-cyano-1-(3-methoxybenzyl)tryptophan] | 29.4
29 | CC#CCOc1ccc(S(=O)(=O)N[C@@H](Cc2cn(Cc3ccc(F)cc3)c3ccc(OC)cc23)C(=O)O)cc1 [Example 60, N-{[4-(but-2-ynyloxy)phenyl]sulfonyl}-1-(4-fluorobenzyl)-5-methoxytryptophan] | 43.5
30 | CC#CCOc1ccc(S(=O)(=O)N[C@@H](Cc2cn(Cc3ccc(C(F)(F)F)cc3)c3ccc(OC)cc23)C(=O)O)cc1 [Example 57, N-{[4-(but-2-ynyloxy)phenyl]sulfonyl}-5-methoxy-1-[4-(trifluoromethyl)benzyl]tryptophan] | 32.1
31 | CC#CCOc1ccc(S(=O)(=O)N[C@@H](Cc2c(C)n(Cc3ccc(C(F)(F)F)cc3)c3ccccc23)C(=O)O)cc1 [Example 150, N-{[4-(but-2-ynyloxy)phenyl]sulfonyl}-2-methyl-1-[4-(trifluoromethyl)benzyl]tryptophan] | 35.6
32 | CC#CCOc1ccc(S(=O)(=O)N[C@@H](Cc2cn(C)c3ccc(C(=O)O)cc23)C(=O)O)cc1 [Example 127, N-{[4-(but-2-ynyloxy)phenyl]sulfonyl}-5-carboxy-1-methyltryptophan] | -3.22
33 | CC#CCOc1ccc(S(=O)(=O)N[C@@H](Cc2cn(Cc3ccc(OC(F)(F)F)cc3)c3ccc(C(=O)O)cc23)C(=O)O)cc1 [Example 114, N-{[4-(but-2-ynyloxy)phenyl]sulfonyl}-5-carboxy-1-[4-(trifluoromethoxy)benzyl]tryptophan] | 10.3
34 | CC#CCOc1ccc(S(=O)(=O)N[C@@H](Cc2cn(Cc3cccc(C)c3)c3ccc(C(=O)O)cc23)C(=O)O)cc1 [Example 105, N-{[4-(but-2-ynyloxy)phenyl]sulfonyl}-5-carboxy-1-(3-methylbenzyl)tryptophan] | 11
